Measured values as given in publication PMC9448371, “Synthesis and biological activity evaluation of 3-(hetero) arylideneindolin-2-ones as potential c-Src inhibitors” (Journal of Enzyme Inhibition and Medicinal Chemistry, 2022).
Read-outs that look alike come from different tables or passages of the source.

Columns and labels:
[1] = molecular target: T1, c-Src (Homo sapiens, UniProt P12931); test: c-Src kinase inhibition assay (ADP-Glo Kinase Assay); format: biochemical; conditions: for IC50: 100 μM ATP, read-out: ID50 (the source's name); for Ki: calculated from ID50 assuming fully ATP-competitive inhibition
T1 construct: His6 (N); purchased Merck-Millipore 14–326
T1 sequence (P12931 whole entry): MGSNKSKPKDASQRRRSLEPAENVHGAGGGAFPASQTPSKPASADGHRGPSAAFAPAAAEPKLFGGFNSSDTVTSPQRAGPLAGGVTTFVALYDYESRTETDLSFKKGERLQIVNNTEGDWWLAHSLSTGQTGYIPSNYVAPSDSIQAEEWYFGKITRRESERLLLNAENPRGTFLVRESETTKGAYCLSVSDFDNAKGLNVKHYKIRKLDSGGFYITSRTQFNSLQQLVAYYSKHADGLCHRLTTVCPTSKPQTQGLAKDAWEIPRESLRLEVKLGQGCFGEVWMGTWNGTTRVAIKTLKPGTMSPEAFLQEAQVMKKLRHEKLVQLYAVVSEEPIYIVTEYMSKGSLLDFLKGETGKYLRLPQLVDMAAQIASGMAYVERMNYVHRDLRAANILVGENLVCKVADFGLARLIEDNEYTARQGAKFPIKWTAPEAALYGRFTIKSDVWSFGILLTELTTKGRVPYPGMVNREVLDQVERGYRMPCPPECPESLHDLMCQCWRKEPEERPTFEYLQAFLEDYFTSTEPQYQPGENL
Protocol: To avoid peptide adsorption to the plastic surface, protein low-binding tubes were used. ADP-Glo Kinase Assay (Promega) was then used to detect kinase activity accordingly with manufacturer’s instruction with minor modifications. In details, reactions were transferred to white 384 well-plates and stopped by adding 10 µL of ADP-Glo Reagent (Promega) for 50 min at rt. 20 μL of Detection Reagent (Promega) was then added for 30 min and the reaction read using GloMax Discover microplate reader (Promega). Data were plotted using GraphPad Prism 5.0. […] Compounds tested were assumed to act as fully ATP-competitive inhibitors. Therefore, Ki values were calculated accordingly to Equation (2).

[2] = tested on: human MCF7 breast cancer cell line; test: Cytotoxicity, growth inhibition MTS assay; format: cell-based; conditions: Homo sapiens, MCF7, 72 h exposure, mean ± SD, triplicate, read-out: MCF-7 (IC50)
Protocol: Cytotoxicity experiments were carried out using the human MCF7 breast cancer cell line (ATCC HTB-22). […] Compound potency was determined by a growth inhibition assay (CellTiter 96® Aqueous One Solution Cell Proliferation Assay MTS, Promega). 24 h after seeding in a 96-well plate, cells were exposed to the compounds (concentration range 1–100 µM) and 72 h later, 20 µL of 3–(4,5-dimethylthiazol-2-yl)-5–(3-carboxymethoxyphenyl)-2–(4-sulfophenyl)-2H-tetrazolium salt (MTS) was added to each well. […] Experiments were performed in triplicate.

[3] = 100 μM compound, in-house collection screen, read-out: % Inhibition Src (100 μM)
[4] = 100 µM compound, Table 2, read-out: % Inhibition 100 µM
[5] = 10 µM compound, Table 3, tested as E/Z mixtures
[6] = 100 µM compound, Table 3, tested as E/Z mixtures, read-out: % Inhibition 100 µM
[7] = 100 µM compound, Table 3, tested as E/Z mixtures, 100 µM

NC(=O)n1ccc2ccc(-c3ccc(F)cc3)nc21 [Compound 1]
% Inhibition Src (100 μM) ([1]; 100 μM compound, in-house collection screen, listed as C00001, 100 µM): 58.1%
inhibition at 100 µM [1, 3]: ~58%

NC(=O)n1ccc2ccc(-c3ccccc3F)nc21 [Compound 2]
inhibition at 100 µM [1, 3]: 28.6%

NC(=O)c1cc2cccc(-c3ccccc3)c2[nH]1 [Compound 3]
inhibition at 100 µM [1, 3]: 34.8%

NC(=O)n1ccc2ccc(N3CCCC3)nc21 [Compound 4]
inhibition at 100 µM [1, 3]: 4%

NC(=O)Nc1ccn([C@H]2C[C@H](O)[C@@H](CO)O2)c(=O)n1 [Compound 5]
inhibition at 100 µM [1, 3]: 1.8%

NC(=O)Nc1ccn([C@@H]2O[C@H](CO)CC2(F)F)c(=O)n1 [Compound 6]
inhibition at 100 µM [1, 3]: 10.3%

O=C1/C(=C\c2ccc(-c3ccccc3)cc2)c2ccccc2N1O [Compound 7]
inhibition at 100 µM [1, 3]: 77.3%

O=C(Nc1ccccc1)Nc1ccc(/C=C2\C(=O)N(O)c3ccccc32)cc1 [Compound 8]
inhibition at 100 µM [1, 3]: 83.2%
IC50 ([1]; Table 1): 12.5 µM

O=C(Nc1ccccc1)Nc1ccc(/C=C2\C(=O)Nc3ccccc32)cc1 [Compound 9]
inhibition at 100 µM [1, 3]: 84%

CN(C)c1nsc2c1C(=O)c1ccccc1C2=O [Compound 10]
% Inhibition Src (100 μM) ([1]; 100 μM compound, in-house collection screen, 100 µM): 43%
% Inhibition Src (100 μM) ([1]; 100 μM compound, in-house collection screen, listed as C00004, 100 µM): 43.5%

Nc1nsc2c1C(=O)c1ccccc1C2=O [Compound 11]
inhibition at 100 µM [1, 3]: 2.2%

COc1cc2c(cc1OC)C(c1ccc(OC(C)=O)cc1)CC(=O)N2 (centres unmarked) [Compound 12]
inhibition at 100 µM [1, 3]: 40%

CC(=O)c1cccc(-c2nc3n(n2)CC(c2ccccc2)=NN3)c1 [Compound 13]
inhibition at 100 µM [1, 3]: 90%
IC50 ([1]; Table 1): 50 µM

COc1ccc(-c2nc3n(n2)CC(c2ccccc2)=NN3)cc1 [Compound 14]
% Inhibition Src (100 μM) ([1]; 100 μM compound, in-house collection screen): did not affect the enzyme activity

Cc1ccc(C2=CCNC(=O)C3C2c2ccccc2N3C)cc1 (centres unmarked) [Compound 16]
inhibition at 100 µM [1, 3]: 0.6%

O=C1c2cc(=O)c3cc(O)ccc3n2C2CCCN12 (centres unmarked) [Compound 18]
inhibition at 100 µM [1, 3]: 15.5%

NC(=O)c1noc2c1CCCC2O (centres unmarked) [Compound 19]
inhibition at 100 µM [1, 3]: 12.8%

CCCN1CC2=C(CC(C)(C)CC2=O)N(c2ccc(C(N)=O)cc2)C1 [Compound 20]
inhibition at 100 µM [1, 3]: 7.7%

O=C1C(=Cc2cccc(Oc3ccccc3)c2)c2ccccc2N1O [Compound 22, 1-hydroxy-3–(3-phenoxybenzylidene)indolin-2-one]
inhibition at 10 µM ([1]; 10 µM compound, Table 2): 32.1 ± 3.53%
inhibition at 100 µM [1, 4]: 64.6 ± 3.8%

O=C1/C(=C\C=C\c2ccc(-c3ccccc3)cc2)c2ccccc2N1O [Compound 23]
inhibition at 10 µM ([1]; 10 µM compound, Table 2): 22.8 ± 2.94%
inhibition at 100 µM [1, 4]: 57.4 ± 6.31%

O=C1/C(=C/c2ccc(-c3ccccc3)cc2)CCN1O [Compound 24]
inhibition at 10 µM ([1]; 10 µM compound, Table 2): 34.2 ± 0.6%
inhibition at 100 µM [1, 4]: 87.5 ± 7.41%

COc1cc(OC)c(/C=C2/C(=O)Nc3ccccc32)c(OC)c1 [Compound 25]
inhibition at 10 µM ([1]; 10 µM compound, Table 2): 23.1 ± 5.55%
inhibition at 100 µM [1, 4]: 35.8 ± 3.69%

O=C1Nc2cc(Cl)ccc2/C1=C/c1cc(Br)c(O)c(Br)c1 [Compound 26]
inhibition at 10 µM ([1]; 10 µM compound, Table 2): 67%
% Inhibition 10 µM ([1]; 10 µM compound, Table 2, listed as C00026, 10 µM): 67.03 ± 0.10%
% Inhibition 100 µM ([1]; 100 µM compound, Table 2, listed as C00026, 100 µM): 94.70 ± 0.30%
inhibition at 100 µM [1, 4]: 95%
IC50 ([1]; Table 2): 5.63 µM
Ki ([1]; Table 2): 3.8 µM

O=C1Nc2ccccc2C1=Cc1ccc(-c2ccccc2)s1 [Compound 27, 3-((5-phenylthiophen-2-yl)methylene)indolin-2-one]
melting point: 257 to 258 °C
inhibition at 10 µM ([1]; 10 µM compound, Table 2): 25.3 ± 9.71%
inhibition at 100 µM [1, 4]: 45.6 ± 7.85%

COc1cc2c(cc1OC)C(=Cc1cc(Br)c(O)c(Br)c1)C(=O)N2 [Compound 29, 3–(3,5-dibromo-4-hydroxybenzylidene)-5,6-dimethoxyindolin-2-one]
inhibition at 10 µM ([1]; 10 µM compound, Table 2): 39.8 ± 3.16%
inhibition at 100 µM [1, 4]: 78.6 ± 1.32%

COc1cc2c(cc1OC)C(=Cc1ccc(-c3ccccc3)cc1)C(=O)N2 [Compound 30, 3-([1,1′-biphenyl]-4-ylmethylene)-5,6-dimethoxyindolin-2-one]
melting point: 231 to 232 °C
inhibition at 10 µM ([1]; 10 µM compound, Table 2): 9.39 ± 19.2%
inhibition at 100 µM [1, 4]: 42 ± 8.91%

N#Cc1ccc(C=C2C(=O)Nc3cc(Cl)ccc32)cc1 [Compound 32, 4-((6-chloro-2-oxoindolin-3-ylidene)methyl)benzonitrile]
melting point: 310 °C (dec.)
inhibition at 10 µM [1, 5]: 35.7 ± 9.66%
inhibition at 100 µM [1, 6]: 89 ± 1.35%
IC50 ([1]; Table 3): > 10 µM

O=C1Nc2cc(Cl)ccc2C1=Cc1ccc(O)cc1 [Compound 35, 6-chloro-3–(4-hydroxybenzylidene)indolin-2-one]
melting point: 330 to 331 °C (dec.)
inhibition at 10 µM [1, 5]: 37.9 ± 0.35%
inhibition at 100 µM [1, 6]: 86.9 ± 2.5%
IC50 ([1]; Table 3): > 10 µM

O=C1Nc2cc(Cl)ccc2C1=Cc1ccc(C(=O)O)cc1 [Compound 36, 4-((6-chloro-2-oxoindolin-3-ylidene)methyl)benzoic acid]
melting point: 271 to 272 °C (dec.)
inhibition at 10 µM [1, 5]: 4.15 ± 1.28%
% Inhibition 100 µM [1, 7]: very low activity
inhibition at 100 µM [1, 6]: 47.2 ± 9.33%

O=C1Nc2cc(Cl)ccc2C1=Cc1ccc(OCc2ccccc2)cc1 [Compound 37, 3–(4-(benzyloxy)benzylidene)-6-chloroindolin-2-one]
melting point: 239 to 240 °C (dec.)
inhibition at 10 µM [1, 5]: 16.9 ± 13.9%
inhibition at 100 µM [1, 6]: 84.27 ± 0.82%

O=C1Nc2cc(Cl)ccc2C1=Cc1cccc(Oc2ccccc2)c1 [Compound 38, 6-chloro-3–(3-phenoxybenzylidene)indolin-2-one]
melting point: 188 to 189 °C
inhibition at 10 µM [1, 5]: 31.5 ± 3.16%
inhibition at 100 µM [1, 6]: 53.6 ± 12.9%

COC(=O)c1ccc(COc2ccc(C=C3C(=O)Nc4cc(Cl)ccc43)cc2)cc1 [Compound 44, Methyl-4-((4-((6-chloro-2-oxoindolin-3-ylidene)methyl)phenoxy)methyl)benzoate]
melting point: 201 to 202 °C
inhibition at 10 µM [1, 5]: 41 ± 10.3%
% Inhibition 100 µM [1, 7]: good activity
inhibition at 100 µM [1, 6]: 92.1 ± 3.84%

O=C1Nc2cc(Cl)ccc2C1=Cc1ccc(OCC2CC2)cc1 [Compound 45, 6-Chloro-3–(4-(cyclopropylmethoxy)benzylidene)indolin-2-one]
melting point: 231 to 232 °C
inhibition at 10 µM [1, 5]: 14.4 ± 2.09%
% Inhibition 100 µM [1, 7]: almost inactive
inhibition at 100 µM [1, 6]: 34.4 ± 13.3%

O=C(O)COc1ccc(C=C2C(=O)Nc3cc(Cl)ccc32)cc1 [Compound 46, 2–(4-((6-Chloro-2-oxoindolin-3-ylidene)methyl)phenoxy)acetic acid]
melting point: 197 °C (dec.)
inhibition at 10 µM [1, 5]: 0%
% Inhibition 100 µM ([1]; 100 µM compound, Table 3, tested as E/Z mixtures, listed as C00041, 100 µM): 70.56 ± 4.80%
inhibition at 100 µM [1, 6]: 70%

O=C1Nc2cc(Cl)ccc2C1=Cc1ccc(OCc2ccc(C(=O)O)cc2)cc1 [Compound 47, 4-((4-((6-chloro-2-oxoindolin-3-ylidene)methyl)phenoxy)methyl)benzoic acid]
inhibition at 10 µM [1, 5]: 63.4 ± 1.06%
% Inhibition 100 µM ([1]; 100 µM compound, Table 3, tested as E/Z mixtures, listed as C00042, 100 µM): 93.88 ± 0.58%
inhibition at 100 µM [1, 6]: 94%
IC50 ([1]; Table 3): 5.31 µM
Ki ([1]; Table 3): 3.58 µM

O=C1Nc2cc(Cl)ccc2C1=Cc1ccc(-c2ccccc2)s1 [Compound 48, 6-chloro-3-((5-phenylthiophen-2-yl)methylene)indolin-2-one]
melting point: 233 to 234 °C
inhibition at 10 µM [1, 5]: 12.8 ± 1.32%
inhibition at 100 µM [1, 6]: 87.7 ± 3.04%

Cc1nc(Nc2ncc(C(=O)Nc3c(C)cccc3Cl)s2)cc(N2CCN(CCO)CC2)n1 [Dasatinib, reference compound]
IC50 [2]: 27 ± 1 µM
